Test [1] relates to OVA-induced airway inflammation. Briefly: Ovalbumin (OVA)-induced pulmonary inflammation in mice. The class given is in vivo, Balb/c mice. On the procedure:
A compound of the present invention is tested in an OVA-induced pulmonary inflammation model in mice essentially as described in a method reported in the literature (Muriel Pichavant, Sho Goya, Eckard Hamelmann, Erwin W. Gelfand, and Dale T. Umetsu. Animal Models of Airway Sensitization. Current Protocols in Immunology. (1999) 15.18.1-15.18.13). Briefly, female Balb/c mice weighing from 18 to 20 g are sensitized by introperitoneal injection of 100 μL of saline containing 20 μg of OVA and 2 mg of aluminum hydroxide on day 1 and 14. On days 28, 29 and 30, mice are challenged once each by aerosolizing 1% ovalbumin (OVA) in phosphate buffered saline (PBS) for 20 minutes with Buxco Mass Dosing System. […] On day 32, animals from each group are anesthetized with 1% of pentobarbital sodium. The thoracic and abdominal cavities are opened and plasma is collected from centrifuged specimens. The trachea is then dissected and transected. Through the insertion of an 18-gauge catheter into the trachea, the lungs are lavaged with a total of 1.5 mL of sterile PBS and then placed into a specimen container. Cell-free BAL supernatants are obtained by centrifugation of BAL fluids. All serum and BAL supernatants are stored at −80° C. until use. Differential cell counts are performed on cytospin preparations of BAL cells for cell counting and cytokine determination. After the collection of BAL supernatants, the lungs of recipient mice are removed en bloc and fixed by an intratracheal instillation of 10% buffered formalin (in PBS). Three to six paraffin sections are obtained from the perihilar regions of recipient lungs, stained with hematoxylin and eosin, and examined under light microscopy for pathological study.

The next test has as its system BxPC-3 cells. Nature of the test: Cell viability test, combination study, BxPC-3. The settings on record: for inhibition at 2.5 µM / inhibition at 25 µM: Homo sapiens, BXPC-3, 72 h, read-out: Ave. Inhibition rate. The class given is cell-based, human. On the procedure:
To evaluate biological activity of a compound in vitro, the cell viability test is applied, in which, IKKβ receptor plays an important role in cell survival and proliferation. Once the IKKβ pathway is blocked by inhibitors, a cell can go through apoptosis or death. The cell viability test provides information on cell survival after treatment with IKK inhibitors.
BxPC-3 cells (ATCC #CRL-1687; human pancreatic cancer cell line) are grown in Roswell Park Memorial Institute (RPMI) 1640 media (Gibco #A10491-01) supplemented with 10% fetal bovine serum (FBS) (Gibco #10099-141). Skov3-luc cells (ATCC, human ovarian carcinoma cell line) are grown in McCoy's 5a medium (Gibco#16600) supplemented with 10% FBS (Gibco#10099-141). For compound testing, BxPc-3 and Skov3-Luc cells are seeded at 2000 and 5000 cells/well respectively in 100 μL of corresponding media specified above for each cell line in 96-well plates 20 h prior to treatment. Cells are treated with a test compound at eight different concentrations in the presence of 0.5% DMSO for 72 h. Cell death in each well is determined by the addition of 20 μL of the One Solution Reagent (CELLTITER 96® AQueous One Solution Cell Proliferation Assay, Promega #G3580). After 2-4 h of incubation at 37° C., optical densities at 492 nm are measured with a microplate reader Inhibition of cell viability is determined by comparison to the control cells treated in the absence of a test compound.
For the combination study of the compound with other antitumor agents, BxPc-3 and Skov3-Luc cells are seeded at 2000 and 5000 cells/well respectively in 100 μL corresponding media specified above for each cell line in 96-well plates 20 h prior to the treatment. The cells are treated with the test compound at a number of concentrations for 30 minutes and then exposed to 5 ng/mL TNFα or 0.15-0.6 uM of VCR (vincristine sulfate) for an additional 72 hours. Cell death in each well is determined by the addition of 20 μL of the One Solution Reagent (CELLTITER 96® AQueous One Solution Cell Proliferation Assay, Promega #G3580). After 2-4 h of incubation at 37° C., optical densities at 492 nm are measured with a microplate reader Inhibition of cell viability is determined by comparison to the control cells treated in the absence of a test compound. For example, the results of the combination study with Example 1 are specially detailed in Table 2.

The test system of test [2] is SKOV-3x-FF-luci human ovarian cancer xenograft. Nature of the test: Anti-tumor effects in SKOV-3x-FF-luci xenograft (21 days). The class given is in vivo, Balb/c nu/nu mice. The settings on record: 60 mg/kg, tid, q6 h, oral. On the procedure: Anti-tumor Effects in Human Ovarian Cancer SKOV-3x-FF-luci Xenograft SKOV-3x-FF-luci human ovarian cancer line cell line (ATCC) is cultured in McCoy's 5a medium containing 10% fetal calf serum (FCS). Female Balb/c nu/nu mice (6-8 weeks old) are peritoneally injected with 0.2 mL of cell suspension containing 2×10^6 cells. Mice are divided into five groups six days after cell implantation. The test compound at doses of 60, 90 and 150 mg/kg is orally administered to animals for a consecutive 21 days with a twice a day (bid) or three times a day (tid) regimen. Mice in control groups are administered the vehicle (10% Acacia at pH 2.1, bid). At the end of the treatment, all mice are euthanized with CO2 and tumors in the peritoneal cavity, diaphragmatic muscle, mesenterium, liver, spleen, and ovaries are dissected and harvested, and put together for the measurement of their combined weight. Results of tumor weight and inhibition rate (IR) are evaluated. The inhibition rate is calculated with the formula: IR %=(tumor weight in control−tumor weight in drug treated)/tumor weight in control×100%.

The structures appear in SMILES notation. Where a name gives a salt, the structure may show the parent alone. Read-outs that look alike come from different tables or passages of the source.

With `Cl.O=C(NC1CC1)c1cccc2[nH]c(-c3nc(N[C@@H]4CCC[C@H]4O)ncc3Cl)cc12` [Example 2, 2-{5-Chloro-2-[(1R,2R)-2-hydroxycyclopentylamino]pyrimidin-4-yl}-N-cyclopropyl-1H-indole-4-carboxamide hydrochloride], the “decrease of eosinophil cell numbers” value is reported as 58.6% in test [1] (1 mg/kg (bid)); 49.3% in test [1] (3 mg/kg (bid)); 94.1% in test [1] (10 mg/kg (bid), p<0.05); 90.2% in test [1] (30 mg/kg (bid), p<0.05). The “reduction of IL-13 production” value in test [1] (10 mg/kg, p<0.05) worked out at 73.0%; in test [1] (30 mg/kg, p<0.01), 85.1%. In addition, in test [1] (Example 2 at 1 to 30 mg/kg), the “lung histology, hematoxylin and eosin stains” value is listed as “improvement in pulmonary inflammation”.
Usually inhibition stands for the drop in the measured response relative to a control, in per cent. Turning to `O=C(NC1CC1)c1cccc2[nH]c(-c3nc(N[C@@H]4CCC[C@@H]4O)ncc3Cl)cc12` [Example 1, 2-{5-Chloro-2-[(1R,2S)-2-hydroxycyclopentylamino]pyrimidin-4-yl}-N-cyclopropyl-1H-indole-4-carboxamide hydrochloride], the “Ave. Inhibition rate” value in the test on BxPC-3 cells (Example 1 25 μM alone, 72 h, hydrochloride) was determined as 11.53%. In addition, the inhibition at 2.5 µM was -16.5% in the test with BxPC-3 cells (Example 1 2.5 μM alone) and 87.8% in the test with BxPC-3 cells (TNFα 5 ng/mL + Example 1 2.5 μM). In addition, the inhibition at 25 µM was found to be 11.5% in the test on BxPC-3 cells (Example 1 25 μM alone) and 80.2% in the test on BxPC-3 cells (Vincristine 0.15 μM + Example 1 25 μM). Also, the “Tumor Weight (g) (Mean ± S.D.)” value in test [2] is reported as 0.509 ± 0.193 g. Further, in test [2] (hydrochloride), the “IR (tumor inhibition rate)” value was 76.31%.

The values above are taken from patent publication US8501166B2, “Pyrimidinyl indole compounds” (Hutchison Medipharma Limited, priority 2010, dated 2013).
